Measurements as given in patent US6369069B1 (Aventis Pharma Deutschland GmbH, priority 1998, dated 2002).

System: Na^+-dependent Cl^−/HCO3^− exchanger (NCBE)
Assay: Inhibition of the Na+-dependent Cl−/HCO3− exchanger (NCBE) in human endothelial cells (pHi recovery, BCECF fluorescence, FLIPR)
Assay type: cell-based
Settings: 10 μM
Procedure: Inhibition of the Na^+-dependent Cl^−/HCO3^− exchanger (NCBE) in human endothelial cells
Human endothelial cells (ECV-304) were detached form culture flasks with the aid of trypsin/EDTA buffer (0.05/0.02% in phosphate buffer) and, after centrifugation (100 g, 5 min), taken up in a buffered saline solution (mmol/l: 115 NaCl, 20 NH4Cl, 5 KCl, 1 CaCl2, 1 MgSO4, 20 N-(2-hydroxyethyl)-piperazine-N[…]-2-ethanesulfonic acid (HEPES), 5 glucose and 1 g/l of bovine serum albumin; pH 7.4). This cell suspension was incubated at 37 °C. for 20 min with 5 μM BCECF acetoxymethyl ester. The cells were then washed and resuspended in a sodium- and bicarbonate-free buffer solution (mmol/l: 5 HEPES, 133.8 choline chloride, 4.7 KCl, 1.25 MgCl2, 0.97 K2HPO4, 0.23 KH2PO4, 5 glucose; pH 7.4).
For the subsequent fluorescence measurement in the FLIPR (Fluorescent Imaging Plate Reader), 100 μl of this cell suspension in each case containing 20,000 cells were added by pipette per well of a 96-well microtiter plate and this microtiter plate was centrifuged (100 g, 5 min). In the FLIPR, 100 μl of buffer solution in each case were then removed from a further prepared microtiter plate and added by pipette to each of the 96 wells of the measuring plate. In this case, for a 100% control, i.e. a recovery of the intracellular pH (pHi) by means of the NCBE, a bicarbonate- and sodium-containing buffer solution (mmol/l: 5 HEPES, 93.8 NaCl, 40 NaHCO3, 4.7 KCl, 1.25 CaCl2, 1.25 MgCl2, 0.97 Na2HPO4, 0.23 NaH2PO4, 5 glucose; pH 7.4) which contained 50 μM HOE 642 was used. For a 0% control, i.e. no pHi recovery at all, a bicarbonate-free, sodium-containing buffer solution (mmol/l: 5 HEPES, 133.8 NaCl, 4.7 KCl, 1.25 CaCl2, 1.25 MgCl2, 0.97 Na2HPO4, 0.23 NaH2PO4, 5 glucose; pH 7.4) to which 50 μM HOE 642 were also added was employed. The compounds according to the invention were added in various concentrations of the sodium- and bicarbonate-containing solution. After addition of the buffer solutions to the dye-loaded acidified cells situated in the measuring plate, the increase in the fluorescence intensity which corresponded to an increase in the pHi was determined in each well of the microtiter plate.
The kinetics were in this case recorded at 35° C. over a period of 2 minutes. The increase in the fluorescence intensities for different concentrations of the compounds according to the invention was related to the two controls and from this the inhibitory action of the substances was determined.

| Compound | Residual activity % of the NCBE at 10 μM [%] |
| --- | --- |
| Cc1ccc(CN(Cc2ccc(-c3ccccc3S(=O)(=O)NC#N)cc2)C(=O)C(C(=O)Cc2ccccc2)c2ccccc2)cc1 (centres unmarked) [Example 135] | 97.4 |
| C[C@@H](c1ccccc1)N(Cc1ccc(-c2ccccc2S(=O)(=O)NC#N)cc1)C(=O)C(C(=O)Cc1ccccc1)c1ccccc1 (some centres unmarked) [Example 136] | 93.6 |
| N#CNS(=O)(=O)c1ccccc1-c1ccc(CN(Cc2ccco2)C(=O)Cc2cccs2)cc1 [Example 139] | 48.5 |
| CN(C)c1ccc(CN(Cc2ccc(-c3ccccc3S(=O)(=O)NC#N)cc2)C(=O)Cc2cccs2)cc1 [Example 140] | 54.2 |
| N#CNS(=O)(=O)c1ccccc1-c1ccc(CN(CCc2cccs2)C(=O)Cc2cccs2)cc1 [Example 141] | 71.1 |
| N#CNS(=O)(=O)c1ccccc1-c1ccc(CN(CCOc2ccccc2)C(=O)Cc2cccs2)cc1 [Example 142] | 27.1 |
| N#CNS(=O)(=O)c1ccccc1-c1ccc(CN(Cc2ccccc2Cl)C(=O)Cc2cccs2)cc1 [Example 143] | 35.7 |
| N#CNS(=O)(=O)c1ccccc1-c1ccc(CN(CC2CC2)C(=O)Cc2cccs2)cc1 [Example 144] | 60.3 |
| COc1cc(CN(Cc2ccc(-c3ccccc3S(=O)(=O)NC#N)cc2)C(=O)Cc2cccs2)cc(OC)c1OC [Example 145] | 39.6 |
| N#CNS(=O)(=O)c1ccccc1-c1ccc(CN(Cc2ccncc2)C(=O)Cc2cccs2)cc1 [Example 146] | 69.8 |
| N#CNS(=O)(=O)c1ccccc1-c1ccc(CN(Cc2ccc(F)cc2)C(=O)Cc2cccs2)cc1 [Example 147] | 53.2 |
| N#CNS(=O)(=O)c1ccccc1-c1ccc(CN(Cc2ccco2)C(=O)Cc2ccc(Cl)cc2)cc1 [Example 148] | 45.6 |
| CN(C)c1ccc(CN(Cc2ccc(-c3ccccc3S(=O)(=O)NC#N)cc2)C(=O)Cc2ccc(Cl)cc2)cc1 [Example 149] | 77.4 |
| N#CNS(=O)(=O)c1ccccc1-c1ccc(CN(CCc2cccs2)C(=O)Cc2ccc(Cl)cc2)cc1 [Example 150] | 44.7 |
| N#CNS(=O)(=O)c1ccccc1-c1ccc(CN(CCOc2ccccc2)C(=O)Cc2ccc(Cl)cc2)cc1 [Example 151] | 29.0 |
| N#CNS(=O)(=O)c1ccccc1-c1ccc(CN(Cc2ccccc2Cl)C(=O)Cc2ccc(Cl)cc2)cc1 [Example 152] | 29.5 |
| N#CNS(=O)(=O)c1ccccc1-c1ccc(CN(CC2CC2)C(=O)Cc2ccc(Cl)cc2)cc1 [Example 153] | 46.1 |
| COc1ccc(CN(Cc2ccc(-c3ccccc3S(=O)(=O)NC#N)cc2)C(=O)Cc2ccc(Cl)cc2)c(OC)c1 [Example 154] | 36.2 |
| COc1cc(CN(Cc2ccc(-c3ccccc3S(=O)(=O)NC#N)cc2)C(=O)Cc2ccc(Cl)cc2)cc(OC)c1OC [Example 155] | 34.2 |
| N#CNS(=O)(=O)c1ccccc1-c1ccc(CN(Cc2ccncc2)C(=O)Cc2ccc(Cl)cc2)cc1 [Example 156] | 86.0 |
| N#CNS(=O)(=O)c1ccccc1-c1ccc(CN(Cc2ccc(F)cc2)C(=O)Cc2ccc(Cl)cc2)cc1 [Example 157] | 24.9 |
| CC(C)(C)CC(=O)N(Cc1ccc(-c2ccccc2S(=O)(=O)NC#N)cc1)Cc1ccco1 [Example 158] | 57.9 |
| CC(C)(C)CC(=O)N(CCc1cccs1)Cc1ccc(-c2ccccc2S(=O)(=O)NC#N)cc1 [Example 159] | 61.2 |
